Assay results from PMC6020753 (Chemical Science, 2016).

Target: T1, NP1 (Rhodnius prolixus, UniProt Q26239)
T1 construct: recombinant in E. coli BL21(DE3), reconstituted ferriheme b protein, two Cys-Cys disulfides
Test: X-band EPR of nitrite complex
Type: binding
Conditions: 300 mM NaNO2, 100 mM HEPES pH 7.2, 25% glycerol, 10 K; heme iron ligand

T1 sequence (Q26239 24-207): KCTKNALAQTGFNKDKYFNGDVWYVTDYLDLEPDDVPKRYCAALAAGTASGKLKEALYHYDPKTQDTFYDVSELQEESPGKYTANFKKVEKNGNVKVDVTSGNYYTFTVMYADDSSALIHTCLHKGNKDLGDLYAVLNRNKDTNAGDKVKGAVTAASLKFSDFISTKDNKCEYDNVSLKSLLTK

O=NO [nitrite]
X-band EPR of nitrite complex: NP1[NO2^–] also has a HALS signal with a similar ratio
